Data from publication PMC10242237 (Scientific Reports, 2023).
Where two headings read alike, the source gives them in different places.

Assays:
[1] = Cytotoxicity assay (XTT) in Vero E6 cells; assay type: cell-based; conditions: African green monkey
Description: (§1) Cytotoxicity was evaluated by incubating two-fold serial dilutions of each compound with Vero E6 cells.

SARS-CoV-2 [2] = assay: Cytopathic effect (CPE)-based anti-SARS-CoV-2 assay in Vero E6 cells; conditions: read-out: EC50 CPE, three days, XTT
SARS-CoV-2 [3] = assay: RNA reduction-based anti-SARS-CoV-2 assay (RT-qPCR) in Vero E6 cells; conditions: read-out: EC50 RNA, two days, RT-qPCR of medium
SARS-CoV-2 PL^pro [4] = target: T1, SARS-CoV-2 PL^pro (Severe acute respiratory syndrome coronavirus 2, UniProt P0DTD1); assay: biochemical; conditions: for inhibition at 1 µM: 0.5 h, read-out: inhibition [%] SARS-CoV-2 PLpro
Vero E6 cells = assay: Cytotoxicity assay (XTT) in Vero E6 cells; assay type: cell-based; conditions: Vero E6 cells, three days, XTT
Description: as §1

SARS-CoV-2 M^pro = SARS-CoV-2 M^pro (Severe acute respiratory syndrome coronavirus 2, UniProt P0DTD1); assay: biochemical; conditions: for inhibition at 0.1 µM: read-out: inhibition [%] SARS-CoV-2 Mpro, [I] = 100 nM; for inhibition at 1 µM: read-out: inhibition [%] SARS-CoV-2 Mpro, [I] = 1 µM
[5] = target: SARS-CoV-2 nsp14 N7-MTase (Severe acute respiratory syndrome coronavirus 2, UniProt P0DTD1); assay: Py-FLINT fluorescence assay of nsp14 N7-MTase; assay type: biochemical; conditions: for SARS-CoV-2 nsp14 Hill coefficient p: four-parameter dose-response fit, variable Hill slope
Description: To determine their IC50 values, we used the previously described fluorescence assay Py-FLINT[42],[67]. To this end, the Py-FLINT probe (1 μM) was incubated with SAM cosubstrate (20 μM), nsp14 enzyme (40 nM), and half-log inhibitor dilutions in 50 mM Tris–HCl pH 7.5 buffer at 30 °C. The reaction progress was monitored in 96-well cells by registering the fluorescence intensity signal with a 1-min time interval. Using the initial reaction course, the values of initial rates V were calculated. To calculate IC50 values from the obtained dependences of initial rates versus inhibitor concentration, we fitted a four-parameter dose–response equation, assuming a variable Hill slope p (Table 3, Fig. S2).
The Py-FLINT probe (1 μM) was incubated with SAM cosubstrate (20 μM), nsp14 (40 nM), and an inhibitor (half-log dilutions logCinh < − 2.5; 2 >). […] Initial rates V were calculated by fitting a linear curve to the first 10 points (10 min). To the obtained dependences V(Cinh) the following four-parameter dose–response equation was fitted:1 V/V0=A1+A2-A1/1+Cinh/IC50^p, where A1 and A2 are the bottom and top asymptotes, respectively; Cinh the inhibitor concentration; p is the Hill coefficient, and V/V0 is the ratio of the initial reaction rate with the inhibitor to that without the inhibitor. For curve fitting and IC50 calculations we used GraphPad Prism software.

A549 human cell line = conditions: cited from earlier work
M^pro [6] = conditions: in vitro FRET substrate assay, recombinant enzyme; cited from earlier work
M^pro [7] = conditions: Protease-Glo luciferase and Flip-GFP assays; cited from earlier work
[8] = phase I clinical trial, humans; cited from earlier work
SARS-CoV-2 PL^pro [9] = target: T1, SARS-CoV-2 PL^pro; conditions: Flip-GFP assay, 293T-ACE2 cells; cited from earlier work
[10] = [E] = 100 nM, [I] = 1 µM, [S] = 10 µM

SMILES | EC50 (SARS-CoV-2 [2]) [µM] | inhibition [%] SARS-CoV-2 PLpro (SARS-CoV-2 PL^pro [4]; [10]) [%] | inhibition at 0.1 µM (SARS-CoV-2 M^pro) [%] | inhibition at 1 µM (SARS-CoV-2 M^pro) [%] | inhibition at 1 µM (SARS-CoV-2 PL^pro [4]) [%] | further results
CCC(CC)COC(=O)[C@H](C)N[P@](=O)(OC[C@H]1O[C@@](C#N)(c2ccc3c(N)ncnn23)[C@H](O)[C@@H]1O)Oc1ccccc1 [Remdesivir, reference compound] | 0.1 ± 0.01 | – | – | – | – | CC50 at 3 days ([1]; Vero E6 cells, three days, XTT, read-out: CC50): > 50 µM; EC50 (SARS-CoV-2 [3]): 0.66 ± 0.06 µM
O=C(Nc1ccccc1F)c1ccccc1[Se][Se]c1ccccc1C(=O)Nc1ccccc1F [Compound 25] | 3.1 ± 0.36 | 82.1 ± 2.7 | 33 ± 5.5 | 100 | – | CC50 (Vero E6 cells): ~60 µM; IC50 [5]: 0.12 ± 0.01 µM; EC50 (SARS-CoV-2 [3]): 1.9 ± 0.15 µM
COc1cccc(NC(=O)c2ccccc2[Se][Se]c2ccccc2C(=O)Nc2cccc(OC)c2)c1 [Compound 28] | 7.6 ± 0.71 | 81.9 ± 0.8 | 37 ± 4.3 | 100 | – | CC50 (Vero E6 cells): > 50 µM; IC50 [5]: 0.58 ± 0.04 µM; EC50 (SARS-CoV-2 [3]): 2.7 ± 0.23 µM
Cc1ccccc1-n1[se]c2ccccc2c1=O [Compound 4] | – | 55.8 ± 5.2 | 63.4 ± 2.7 | – | – | –
O=c1c2ccccc2[se]n1-c1ccccc1C(F)(F)F [Compound 5] | – | 44.4 ± 2.5 | 62.8 ± 0.7 | – | – | –
COc1ccc(-n2[se]c3ccccc3c2=O)c(OC)c1 [Compound 16] | – | – | 59 ± 1.5 | – | 64.3 ± 3.8 | toxicity in A549 cells, times lower in comparison with ebselen (A549 human cell line): 10 times; melting point: 238 to 240 °C; SARS-CoV-2 nsp14 Hill coefficient p [5]: 2.36 ± 0.32
O=c1c2ccccc2[se]n1-c1ccc(C(F)(F)F)cc1 [Compound 9] | – | – | 71 ± 9.3 | – | 48 ± 3.6 | –
O=c1c2ccccc2[se]n1-c1ccc(Cl)cc1F [Compound 15] | – | 55.7 ± 3.1 | 77.1 ± 2.8 | – | – | –
COc1ccc(-n2[se]c3ccccc3c2=O)cc1OC [Compound 23] | – | – | 60.6 ± 0.4 | – | 58 ± 1.9 | –
Cc1cc(NC(=O)c2ccccc2[Se][Se]c2ccccc2C(=O)Nc2ccc(Cl)c(C)c2)ccc1Cl [Compound 33] | 20 ± 1.4 | 72.1 ± 3.2 | 48.7 ± 5.4 | 92 ± 0.3 | – | CC50 (Vero E6 cells): > 50 µM; IC50 [5]: 1.06 ± 0.05 µM; EC50 (SARS-CoV-2 [3]): 1.7 ± 0.08 µM
O=c1c2ccccc2[se]n1-c1ccccc1Cl [Compound 2] | – | – | 66.5 ± 3.4 | – | 56.7 ± 4.1 | –
O=C(Nc1ccccc1C(F)(F)F)c1ccccc1[Se][Se]c1ccccc1C(=O)Nc1ccccc1C(F)(F)F [Compound 26] | 37 ± 2.4 | 61.3 ± 2.2 | 34.5 ± 4.4 | 78.1 ± 2.4 | – | CC50 (Vero E6 cells): > 50 µM; IC50 [5]: 1.82 ± 0.32 µM
O=c1c2ccccc2[se]n1-c1cc(Cl)ccc1Cl [Compound 18] | – | 47.8 ± 0.9 | 72.3 ± 3.1 | – | – | –
O=c1c2ccccc2[se]n1-c1ccccc1[N+](=O)[O-] [Compound 6] | – | 46.6 ± 2.3 | 38.5 ± 2.3 | – | – | –
O=c1c2ccccc2[se]n1-c1ccc(I)cc1 [Compound 11] | – | – | 71.6 ± 5.6 | – | 48 ± 2.1 | melting point: 203 to 204 °C
Cc1ccc(Cl)cc1NC(=O)c1ccccc1[Se][Se]c1ccccc1C(=O)Nc1cc(Cl)ccc1C [Compound 32] | 22 ± 2.5 | 72.4 ± 1.7 | 55.4 ± 3.8 | 100 | – | CC50 (Vero E6 cells): > 50 µM; IC50 [5]: 12.1 ± 1.1 µM
O=C(Nc1ccc(C(F)(F)F)cc1)c1ccccc1[Se][Se]c1ccccc1C(=O)Nc1ccc(C(F)(F)F)cc1 [Compound 29] | 29 ± 3.5 | 61.3 ± 3.4 | 14 ± 2.4 | 100 | – | CC50 (Vero E6 cells): > 50 µM; IC50 [5]: 4.5 ± 1.3 µM
O=c1c2ccccc2[se]n1-c1ccc([N+](=O)[O-])cc1 [Compound 10] | – | – | 82.9 ± 1.7 | – | 56.2 ± 4.2 | SARS-CoV-2 nsp14 Hill coefficient p [5]: 1.73 ± 0.35

SMILES | EC50 (SARS-CoV-2 [2]) [µM] | inhibition [%] SARS-CoV-2 PLpro (SARS-CoV-2 PL^pro [4]; [10]) [%] | inhibition at 0.1 µM (SARS-CoV-2 M^pro) [%] | inhibition at 1 µM (SARS-CoV-2 M^pro) [%] | inhibition at 1 µM (SARS-CoV-2 PL^pro [4]) [%] | further results
O=c1c2ccccc2[se]n1-c1cc(Cl)ccc1F [Compound 17, 2-(5-chloro-2-fluorophenyl)-1,2-benzisoselenazol-3(2H)-one] | – | – | 82.3 ± 2.1 | – | 47.2 ± 1 | SARS-CoV-2 nsp14 Hill coefficient p [5]: 2.15 ± 0.28
O=c1c2ccccc2[se]n1-c1ccccc1F [Compound 1] | – | – | 72.3 ± 2.3 | – | 54.6 ± 2 | –
O=c1c2ccccc2[se]n1-c1ccccc1 [Ebselen, 2-phenylbenzisoselenazol-3(2H)-one, reference compound] | 34 ± 7.9 | – | – | 100 | – | inhibition at 1 µM (SARS-CoV-2 PL^pro [4]; [10]): 65.4 ± 2.4%; M^pro inhibition in presence of reducing agent (M^pro [6]): does not inhibit; M^pro inhibition in cells (M^pro [7]): no M^pro inhibition; tolerated single dose [8]: 1600 mg; CC50 at 3 days [1]: ~30 µM; inhibition at 0.1 µM (SARS-CoV-2 M^pro; [E] = 100 nM, [I] = 100 nM, [S] = 50 µM): 57.6 ± 1.3%; SARS-CoV-2 nsp14 Hill coefficient p [5]: 2.74 ± 0.47; SARS-CoV-2 PL^pro inhibition in cells (SARS-CoV-2 PL^pro [9]): no SARS-CoV-2 PL^pro inhibition
CC(=O)Nc1ccc(-n2[se]c3ccccc3c2=O)cc1 [Compound 13] | – | – | 62 ± 1 | – | 57.3 ± 1.8 | –
O=C(Nc1cccc(F)c1)c1ccccc1[Se][Se]c1ccccc1C(=O)Nc1cccc(F)c1 [Compound 27, bis[2-(3-fluorophenylcarbamoyl)]phenyl diselenide] | 0.7 ± 0.13 | 90.1 ± 5.4 | 44 ± 4.1 | 100 | – | CC50 (Vero E6 cells): > 50 µM; IC50 [5]: 0.18 ± 0.04 µM; EC50 (SARS-CoV-2 [3]): 1.5 ± 0.15 µM
Cc1c(Cl)cccc1-n1[se]c2ccccc2c1=O [Compound 21] | – | – | 70.6 ± 1.4 | – | 58.3 ± 2.4 | melting point: 282 to 283 °C
O=c1c2ccccc2[se]n1-c1ccc(F)cc1F [Compound 14] | – | 58.1 ± 3.9 | 64.8 | – | – | –
Cc1cc(-n2[se]c3ccccc3c2=O)ccc1Cl [Compound 22] | – | – | 72.2 ± 0.8 | – | 43.1 ± 2.1 | –
COc1cccc(-n2[se]c3ccccc3c2=O)c1 [Compound 8] | – | – | 59.9 ± 4.8 | – | 52.6 ± 1.4 | –
CC(=O)c1ccc(-n2[se]c3ccccc3c2=O)cc1 [Compound 12] | – | 59.0 ± 3.0 | 55.1 ± 2.7 | – | – | –
O=C(Nc1ccc(Cl)cc1F)c1ccccc1[Se][Se]c1ccccc1C(=O)Nc1ccc(Cl)cc1F [Compound 30] | 1.1 ± 0.15 | 75.1 ± 0.4 | 27.4 | 49.6 ± 2.7 | – | CC50 (Vero E6 cells): > 50 µM; IC50 [5]: 11.5 ± 1.4 µM; EC50 (SARS-CoV-2 [3]): 1.9 ± 0.1 µM
Cc1ccc(Cl)c(-n2[se]c3ccccc3c2=O)c1 [Compound 19] | – | 57.6 ± 3.0 | 61.8 ± 0.5 | – | – | –
Cc1ccc(Cl)cc1-n1[se]c2ccccc2c1=O [Compound 20] | – | – | 69 ± 3.5 | – | 62.6 ± 1.7 | –
COc1ccc(NC(=O)c2ccccc2[Se][Se]c2ccccc2C(=O)Nc2ccc(OC)cc2OC)c(OC)c1 [Compound 31] | 7.1 ± 0.84 | 76.6 ± 2.4 | 50 ± 1 | 100 | – | CC50 (Vero E6 cells): > 50 µM; IC50 [5]: 0.91 ± 0.1 µM; EC50 (SARS-CoV-2 [3]): 2.8 ± 0.31 µM
O=C(Nc1c(F)cccc1Cl)c1ccccc1[Se][Se]c1ccccc1C(=O)Nc1c(F)cccc1Cl [Compound 34] | 9.3 ± 0.92 | 60.2 ± 1.7 | 32 ± 2.1 | 43.1 ± 3 | – | CC50 (Vero E6 cells): > 50 µM; IC50 [5]: 2.1 ± 0.58 µM; EC50 (SARS-CoV-2 [3]): 3.4 ± 0.2 µM
O=c1c2ccccc2[se]n1-c1ccccc1Br [Compound 3] | – | – | 73.3 ± 4.5 | – | 59.2 ± 4.5 | SARS-CoV-2 nsp14 Hill coefficient p [5]: 3.12 ± 0.47
O=c1c2ccccc2[se]n1-c1ncccc1O [Compound 7, 2-(3-hydroxypyridin-2-yl)-1,2-benzisoselenazol-3(2H)-one] | – | – | 55.9 ± 4.1 | – | 84.4 ± 2.1 | melting point: 228 to 229 °C (dec.); SARS-CoV-2 nsp14 Hill coefficient p [5]: 4.08 ± 1.33
